Results from US11179383B2 (Gilead Sciences, Inc., priority 2018, dated 2021).

Target: T1, α4β7 integrin (Homo sapiens, UniProt P13612+P26010)
T1 construct: monitoring the capture of α4β7 integrin expressing cells on a recombinant MadCAM-1 extracellular domain-coated plate; endogenous in cells; host or cells: RPMI8866 cells
T1 sequence (P13612 34-1032): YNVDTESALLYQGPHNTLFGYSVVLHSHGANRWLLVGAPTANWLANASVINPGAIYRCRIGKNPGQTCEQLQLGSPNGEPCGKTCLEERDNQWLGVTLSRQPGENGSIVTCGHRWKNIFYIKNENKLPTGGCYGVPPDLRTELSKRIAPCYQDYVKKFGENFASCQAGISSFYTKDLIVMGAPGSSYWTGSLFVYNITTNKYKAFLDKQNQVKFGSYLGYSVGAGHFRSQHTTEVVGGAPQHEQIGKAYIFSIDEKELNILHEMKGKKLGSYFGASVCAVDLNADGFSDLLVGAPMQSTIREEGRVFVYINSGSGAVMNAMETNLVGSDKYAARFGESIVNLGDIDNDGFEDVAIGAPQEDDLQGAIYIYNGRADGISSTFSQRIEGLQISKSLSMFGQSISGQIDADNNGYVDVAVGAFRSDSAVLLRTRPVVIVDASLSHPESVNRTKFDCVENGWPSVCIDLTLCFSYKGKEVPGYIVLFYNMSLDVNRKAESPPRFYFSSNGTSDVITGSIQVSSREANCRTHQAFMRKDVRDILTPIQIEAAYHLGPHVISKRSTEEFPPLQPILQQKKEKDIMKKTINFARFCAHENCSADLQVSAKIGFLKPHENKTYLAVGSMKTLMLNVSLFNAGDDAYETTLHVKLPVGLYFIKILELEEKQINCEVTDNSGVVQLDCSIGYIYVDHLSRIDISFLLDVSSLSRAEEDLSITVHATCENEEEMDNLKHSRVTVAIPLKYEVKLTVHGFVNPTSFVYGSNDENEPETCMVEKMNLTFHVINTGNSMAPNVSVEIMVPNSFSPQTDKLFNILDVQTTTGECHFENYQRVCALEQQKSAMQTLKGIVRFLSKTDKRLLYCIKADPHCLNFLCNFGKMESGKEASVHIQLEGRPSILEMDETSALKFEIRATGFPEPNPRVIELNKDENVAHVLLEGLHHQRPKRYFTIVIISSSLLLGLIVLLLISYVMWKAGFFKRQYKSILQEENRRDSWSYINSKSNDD
T1 sequence (P26010 20-798): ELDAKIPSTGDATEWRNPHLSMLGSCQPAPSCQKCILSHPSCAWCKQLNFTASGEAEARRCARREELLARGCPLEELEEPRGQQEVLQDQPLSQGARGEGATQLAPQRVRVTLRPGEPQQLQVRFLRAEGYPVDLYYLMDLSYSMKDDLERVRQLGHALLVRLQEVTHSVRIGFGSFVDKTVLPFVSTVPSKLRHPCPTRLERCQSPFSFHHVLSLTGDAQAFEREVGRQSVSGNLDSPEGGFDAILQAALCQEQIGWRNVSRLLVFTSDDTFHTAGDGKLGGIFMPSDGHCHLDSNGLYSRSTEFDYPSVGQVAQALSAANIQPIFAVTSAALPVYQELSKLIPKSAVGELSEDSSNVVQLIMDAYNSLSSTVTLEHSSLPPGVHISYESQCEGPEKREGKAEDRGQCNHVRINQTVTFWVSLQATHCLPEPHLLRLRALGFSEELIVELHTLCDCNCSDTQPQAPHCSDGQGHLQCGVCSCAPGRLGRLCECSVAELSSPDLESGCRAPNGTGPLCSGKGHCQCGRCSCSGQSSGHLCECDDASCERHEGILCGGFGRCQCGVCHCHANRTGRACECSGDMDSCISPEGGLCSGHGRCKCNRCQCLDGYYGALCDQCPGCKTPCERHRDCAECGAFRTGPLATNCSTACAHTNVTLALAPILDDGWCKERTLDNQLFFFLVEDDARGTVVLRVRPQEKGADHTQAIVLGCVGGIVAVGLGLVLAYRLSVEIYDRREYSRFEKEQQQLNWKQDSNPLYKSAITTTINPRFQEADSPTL
Assay: α4β7 Integrin Cell Capture Assay
Type: cell-based
Conditions: capture of α4β7 integrin expressing RPMI8866 cells on recombinant MadCAM-1 extracellular domain-coated plate; DMEM+0.5% FBS+0.5 mM MnCl2; read-out: EC50 α4β7
Experimental: α4β7 Integrin Cell Capture Assay
The potency of inhibitors in preventing α4β7 integrin interaction with MadCAM-1 was measured by monitoring the capture of α4β7 integrin expressing cells on a recombinant MadCAM-1 extracellular domain-coated plate.
384-Well plates (Corning 3702) were coated with MadCAM-1 extracellular domain by dispensing 20 μL of MAdCAM-1 at 1.0 μg/mL per well and incubating overnight at 4° C. The plates were then washed with PBS and blocked with 3% BSA for 2 hours before being washed again.
RPMI8866 cells were spun down and re-suspended in assay medium (DMEM+0.5% FBS+0.5 mM MnCl2) at a density of 0.5×10^6 cells/mL. The cells were then dispensed (60 μL/well) to a 384-well plate (Greiner 781280) that was previously spotted with 60 nL of test compound per well. The plates were incubated at 37° C. for 1 hour. 50 μL of cells were transferred to the blocked, MadCAM-1-coated plates and incubated for 30 minutes at 37° C. 10 μL of 12% glutaraldehyde containing Hoechst 33342 (0.06 mg/mL) was added to the cells (2% glutaraldehyde and 0.01 mg/mL final concentrations). The plates were incubated for 90 minutes at room temperature. The plates were then washed 3 times with 70 μL of PBS per well and imaged on a Cellomics ArrayScan instrument. The cells that were bound to the plate were counted and plotted against the compound concentration to determine the EC50 of the test compounds.

| EC50 [nM] | SMILES |
| --- | --- |
| 0.08 | Cc1cc(N2CCOC[C@@H]2C(F)(F)F)cc(F)c1C(=O)N[C@@H](Cc1ccc(-c2c(C(F)(F)F)cc(C)n(C)c2=O)c2nccnc12)C(=O)O (atropisomer, axis not shown) [Example 178] |
| 0.1 | Cc1cc(C(F)(F)F)c(-c2ccc(C[C@H](NC(=O)c3c(F)cc(N4CCOC[C@@H]4C(F)(F)F)cc3F)C(=O)O)c3nccnc23)c(=O)n1C (atropisomer, axis not shown) [Example 179] |
| 702 | O=C(N[C@@H](Cc1ccc(-c2c(Cl)cc(F)cc2Cl)c2cccnc12)C(=O)O)c1c(F)cc(N2CCOCC2C(F)(F)F)cc1F (single isomer, unassigned) [Example 5] |
| 139 | O=C(N[C@@H](Cc1ccc(-c2c(Cl)cc(F)cc2Cl)c2cccnc12)C(=O)O)c1c(F)cc(N2CCOCC2C(F)(F)F)cc1F (single isomer, unassigned) [Example 6] |
| 0.8 | CC[C@@H](Nc1cc(F)c(C(=O)N[C@@H](Cc2ccc(-c3c(C)n(C)c(=O)n(C)c3=O)c3cccnc23)C(=O)O)c(F)c1)C(F)(F)F (single isomer, unassigned) [Example 8] |
| 4.1 | CC[C@@H](Nc1cc(F)c(C(=O)N[C@@H](Cc2ccc(-c3c(C)n(C)c(=O)n(C)c3=O)c3cccnc23)C(=O)O)c(F)c1)C(F)(F)F (single isomer, unassigned) [Example 9] |
| 0.5 | Cc1c(-c2ccc(C[C@H](NC(=O)c3c(Cl)cccc3Cl)C(=O)O)c3ncccc23)c(=O)n(C)c2ccc(F)cc12 (single isomer, unassigned) [Example 11] |
| 19.5 | Cc1c(-c2ccc(C[C@H](NC(=O)c3c(Cl)cccc3Cl)C(=O)O)c3ncccc23)c(=O)n(C)c2ccc(F)cc12 (single isomer, unassigned) [Example 12] |
| 28.6 | Cc1c(-c2ccc(C[C@H](NC(=O)c3c(Cl)cccc3Cl)C(=O)O)c3ncccc23)c(=O)n(C)c2ccccc12 (single isomer, unassigned) [Example 47] |
| 2.1 | Cc1c(-c2ccc(C[C@H](NC(=O)c3c(Cl)cccc3Cl)C(=O)O)c3ncccc23)c(=O)n(C)c2ccccc12 (single isomer, unassigned) [Example 48] |
| 46.2 | COc1cc(F)cc(C(F)(F)F)c1-c1ccc(C[C@H](NC(=O)c2c(Cl)cccc2Cl)C(=O)O)c2ncccc12 (single isomer, unassigned) [Example 49] |
| 152 | COc1cc(F)cc(C(F)(F)F)c1-c1ccc(C[C@H](NC(=O)c2c(Cl)cccc2Cl)C(=O)O)c2ncccc12 (single isomer, unassigned) [Example 50] |
| 150 | COc1cc(F)cc(Cl)c1-c1ccc(C[C@H](NC(=O)c2c(Cl)cccc2Cl)C(=O)O)c2ncccc12 (single isomer, unassigned) [Example 53] |
| 38.8 | COc1cc(F)cc(Cl)c1-c1ccc(C[C@H](NC(=O)c2c(Cl)cccc2Cl)C(=O)O)c2ncccc12 (single isomer, unassigned) [Example 54] |
| 2.7 | Cc1cc(C(F)(F)F)c(-c2ccc(C[C@H](NC(=O)c3c(Cl)cccc3Cl)C(=O)O)c3ncccc23)c(=O)n1C (single isomer, unassigned) [Example 60] |
| 15.1 | Cc1cc(C(F)(F)F)c(-c2ccc(C[C@H](NC(=O)c3c(Cl)cccc3Cl)C(=O)O)c3ncccc23)c(=O)n1C (single isomer, unassigned) [Example 61] |
| 3.2 | Cn1c(=O)c(-c2ccc(C[C@H](NC(=O)c3c(Cl)cccc3Cl)C(=O)O)c3ncccc23)c(C(F)(F)F)c2ccccc21 (single isomer, unassigned) [Example 62] |
| 33.8 | Cn1c(=O)c(-c2ccc(C[C@H](NC(=O)c3c(Cl)cccc3Cl)C(=O)O)c3ncccc23)c(C(F)(F)F)c2ccccc21 (single isomer, unassigned) [Example 63] |
| 4.4 | Cn1c(=O)c(-c2ccc(C[C@H](NC(=O)c3c(Cl)cccc3Cl)C(=O)O)c3ncccc23)c(C(F)(F)F)c2cc(Br)ccc21 (single isomer, unassigned) [Example 64] |
| 26.8 | Cn1c(=O)c(-c2ccc(C[C@H](NC(=O)c3c(Cl)cccc3Cl)C(=O)O)c3ncccc23)c(C(F)(F)F)c2cc(Br)ccc21 (single isomer, unassigned) [Example 65] |
| 8.4 | COc1cnn(C)c(=O)c1-c1ccc(C[C@H](NC(=O)c2c(Cl)cccc2Cl)C(=O)O)c2ncccc12 (single isomer, unassigned) [Example 73] |
| 23 | Cc1c(-c2ccc(C[C@H](NC(=O)c3c(Cl)cccc3Cl)C(=O)O)c3ncccc23)c(=O)n(C)c2ccc(Cl)cc12 (single isomer, unassigned) [Example 75] |
| 55.7 | Cc1c(-c2ccc(C[C@H](NC(=O)c3c(Cl)cccc3Cl)C(=O)O)c3ncccc23)c(=O)n(C)c2ccc(Cl)cc12 (single isomer, unassigned) [Example 76] |
| 60.4 | Cc1c(-c2ccc(C[C@H](NC(=O)c3c(Cl)cccc3Cl)C(=O)O)c3ncccc23)c(=O)n(C)c2cc(Cl)ccc12 (single isomer, unassigned) [Example 77] |
| 6.6 | Cc1c(-c2ccc(C[C@H](NC(=O)c3c(F)cccc3F)C(=O)O)c3ncccc23)c(=O)n(C)c(=O)n1C (single isomer, unassigned) [Example 81] |
| 39 | Cc1c(-c2ccc(C[C@H](NC(=O)c3c(F)cccc3F)C(=O)O)c3ncccc23)c(=O)n(C)c(=O)n1C (single isomer, unassigned) [Example 82] |
| 3 | Cc1cc(C(F)(F)F)c(-c2ccc(C[C@H](NC(=O)c3c(F)cc(N4CCOC[C@@H]4C(F)(F)F)cc3F)C(=O)O)c3ncccc23)c(=O)n1C (single isomer, unassigned) [Example 85] |
| 0.3 | Cc1cc(C(F)(F)F)c(-c2ccc(C[C@H](NC(=O)c3c(F)cc(N4CCOC[C@@H]4C(F)(F)F)cc3F)C(=O)O)c3ncccc23)c(=O)n1C (single isomer, unassigned) [Example 86] |
| 2.9 | Cc1c(-c2ccc(C[C@H](NC(=O)c3c(F)cc(N4CCOC[C@@H]4C(F)(F)F)cc3F)C(=O)O)c3ncccc23)c(=O)n(C)c2ccc(F)cc12 (single isomer, unassigned) [Example 87] |
| 0.1 | Cc1c(-c2ccc(C[C@H](NC(=O)c3c(F)cc(N4CCOC[C@@H]4C(F)(F)F)cc3F)C(=O)O)c3ncccc23)c(=O)n(C)c2ccc(F)cc12 (single isomer, unassigned) [Example 88] |
